# Biological target: T1, angiotensin II receptor (Oryctolagus cuniculus, UniProt P34976)
# T1 construct: The aorta was cut into 3~4 mm to form ring samples; from tissue; host or cells: isolated aorta rings of New Zealand White rabbits
# T1 sequence (P34976 1-359): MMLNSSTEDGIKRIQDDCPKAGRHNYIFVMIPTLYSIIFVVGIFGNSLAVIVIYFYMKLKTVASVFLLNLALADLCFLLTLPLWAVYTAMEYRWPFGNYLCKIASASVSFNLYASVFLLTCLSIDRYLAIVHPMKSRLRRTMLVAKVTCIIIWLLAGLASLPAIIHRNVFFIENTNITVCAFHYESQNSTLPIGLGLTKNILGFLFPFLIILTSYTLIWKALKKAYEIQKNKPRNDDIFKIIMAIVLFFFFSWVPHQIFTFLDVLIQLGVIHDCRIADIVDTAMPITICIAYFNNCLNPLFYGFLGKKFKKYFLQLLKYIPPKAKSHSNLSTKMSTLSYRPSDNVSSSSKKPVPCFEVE
# Test: inhibition of angiotensin II induced contraction of isolated rabbit aorta rings
# Type: cell-based, New Zealand White rabbit
# Conditions: test compound incubated 20 minutes, 37° C., pH 7.4, read-out: IC50 (concentration being required to inhibit angiotensin II induced contraction by 50%)
# Method: The antagonistic activity of the representative compounds of the invention was evaluated using the methodology describe below.
# From New Zealand White rabbits (male or female, 2~2.5 kg), aorta was isolated, and fat and connected tissue were removed therefrom. The aorta was cut into 3~4 mm to form ring samples. The aorta sample was suspended in 20 ml of organ bath (37° C.) containing modified Krebs-Henseleit solution saturated with 95% O2 /5% CO2 (pH 7.4).
# The aorta preparation was exposed consecutively to 2 g of tensile strength for 90 minutes intermittently washing the sample with 30 minutes interval and then to 30 mM of KCl to observe contraction response. After washing more than three times, the aorta preparation was again allowed to contract three times for stabilization by adding Angiotensin II ([…]) thereto with 30 minutes interval. The third contraction response to Angiotensin II was considered as control.
# 10 minutes after the third contraction, the test compound was administered to the aorta preparation, which was incubated for 20 minutes.
# Comparing angiotensin II contraction curve obtained from the above inhibition test with that of the control, IC50 (concentration being required to inhibit angiotensin II induced contraction by 50%) was determined for each test compound(Table 1).
row,Structure (SMILES),IC50
1,"CCCCc1nc(C)c(CCC(=O)N2CCN(C(C)=O)CC2)c(=O)n1Cc1ccc(-c2ccccc2-c2nn[nH]n2)cc1 [Compound 81, 2-n-butyl-5-[2'-(4""-acetylpiperazino)carbonylethyl]-6-methyl-3-[[2'-(1H-tetrazol-5-yI)biphenyl-4-yl]methyl]-pyrimidin-4-(3H)-one]",9.87 nM
2,"CCOC(=O)CCc1c(C)nc(CC)n(Cc2ccc(-c3ccccc3-c3nnn[nH]3)cc2)c1=O [Compound 5, 2-ethyl-5-(2'-ethoxycarbonylethyl)-6-methyl-3-[[2'-(1H-tetrazol-5-yl)biphenyl-4-yl]methyl]-pyrimidin-4-(3H)-one]",30.7 nM
3,"CCCCc1nc(=O)c(CC(=O)N2CCCC2)c(C)n1Cc1ccc(-c2ccccc2-c2nn[nH]n2)cc1 [Compound 41, 2-n-butyl-5-pyrrolidinocarbonylmethyl-6-methyl-1-[[2'-(1H-tetrazol-5-yl)biphenyl-4-yl]methyl]-pyrimidin-4-(1H) -one]",119 nM
4,"CCCCc1nc(C)c(CC(=O)N2[C@H](C)CCC[C@@H]2C)c(=O)n1Cc1ccc(-c2ccccc2-c2nn[nH]n2)cc1 [Compound 50, 2-n-butyl-5-(cis-2',6'-dimethylpiperidinocarbonylmethyl)-6-methyl-3-[[2'-(1H-tetrazol-5-yl)biphenyl-4-yl]methyl]-pyrimidin-4-(3H)-one]",28.4 nM
5,"CCCCc1nc(=O)c(CC(=O)N2CCCCC2)c(C)n1Cc1ccc(-c2ccccc2-c2nn[nH]n2)cc1 [Compound 46, 2-n-butyl-5-piperidinocarbonylmethyl-6-methyl-1-[[2'-(1H-tetrazol-5-yl)biphenyl-4-yl]methyl]-pyrimidin-4-(1H)-one]",405 nM
6,"CCCc1nc(C)c(CC(=O)O)c(=O)n1Cc1ccc(-c2ccccc2-c2nnn[nH]2)cc1 [Compound 10, 2-n-propyl-5-carboxymethyl-6-methyl-3-[[2'-(1H-tetrazol-5-yl)-biphenyl-4-yl]methyl]-pyrimidin-4-(3H)-one]",37.1 nM
7,"CCCCc1nc(C)c(CCC(=O)N2CCC(C(=O)OCC)CC2)c(=O)n1Cc1ccc(-c2ccccc2-c2nn[nH]n2)cc1 [Compound 66, 2-n-butyl-5-[2'-(4""-ethoxycarbonylpiperidino)carbonylethyl]-6-methyl-3-[[2'-(1H-tetrazol-5-yl)biphenyl-4-yl]methyl]-pyrimidin-4-(3H)-one]",9.7 nM
8,"CCCCc1nc(C)c(CCC(=O)N2CCN(C/C=C/c3ccccc3)CC2)c(=O)n1Cc1ccc(-c2ccccc2-c2nn[nH]n2)cc1 [Compound 83, 2-n-butyl-5-[2'-(4""-trans-cinnamylpiperazino)carbonylethyl]-6-methyl-3-[[2'-(1H-tetrazol-5-yl)biphenyl-4-yl]methyl]-pyrimidin-4-(3H)-one]",151 nM
9,"CCCCc1nc(C)c(CCC(=O)O)c(=O)n1Cc1ccc(-c2ccccc2-c2nnn[nH]2)cc1 [Compound 25, 2-n-butyl-5-(2'-carboxyethyl)-6-methyl-3-[[2'-(1H-tetrazol-5-yl)-biphenyl-4-yl]methyl]-pyrimidin-4-(3H)-one]",9.43 nM
10,"CCCCc1nc(C)c(CCC(=O)N2CCN(c3ccccn3)CC2)c(=O)n1Cc1ccc(-c2ccccc2-c2nn[nH]n2)cc1 [Compound 82, 2-n-butyl-5-[2'-(4""-(2'""-pyridyl)piperazino)carbonylethyl]-6-methyl-3-[[2'-(1H-tetrazol-5-yl)biphenyl-4-yl]methyl]-pyrimidin-4-(3H)-one]",53 nM
11,"CCCCc1nc(C)c(CCC(=O)N2CCC(Cc3ccccc3)CC2)c(=O)n1Cc1ccc(-c2ccccc2-c2nn[nH]n2)cc1 [Compound 63, 2-n-butyl-5-[2'-(4""-benzylpiperidino)carbonylethyl]-6-methyl-3-[[2'-(1H -tetrazol-5-yl)biphenyl-4-yl]methyl]-pyrimidin-4-(3H)-one]",302 nM
12,"CCCCc1nc(=O)c(CCC(=O)O)c(C)n1Cc1ccc(-c2ccccc2-c2nnn[nH]2)cc1 [Compound 26, 2-n-butyl-5-(2'-carboxyethyl)-6-methyl-1-[[2'-(1H-tetrazol-5-yl)-biphenyl-4-yl]methyl]-pyrimidin-4-(1H)-one]",42.8 nM
13,"CCCCc1nc(C)c(CCC(=O)N2CCCC(C(=O)N(CC)CC)C2)c(=O)n1Cc1ccc(-c2ccccc2-c2nn[nH]n2)cc1 (centres unmarked) [Compound 69, 2-n-butyl-5-[2'-(3""-diethylaminocarbonylpiperidino)carbonylethyl]-6-methyl-3-[[2'-(1H-tetrazol-5-yl)biphenyl-4-yl]methyl]-pyrimidin-4-(3H)-one]",10.7 nM
14,"CCCCc1nc(C)c(CC(=O)N2CCCC(C)(C)C2)c(=O)n1Cc1ccc(-c2ccccc2-c2nn[nH]n2)cc1 [Compound 49, 2-n-butyl-5-(3',3'-dimethylpiperidinocarbonylmethyl)-6-methyl-3-[[2'-(1H-tetrazol-5-yl)biphenyl-4-yl]methyl]-pyrimidin-4-(3H)-one]",8.96 nM
15,"CCCCc1nc(C)c(CCC(=O)NCc2ccccc2)c(=O)n1Cc1ccc(-c2ccccc2-c2nnn[nH]2)cc1 [Compound 28, 2-n-butyl-5-(2'-benzylaminocarbonylethyl)-6-methyl-3-[[2'-(1H-tetrazol-5-yl)biphenyl-4-yl]methyl]-pyrimidin-4-(3H)-one]",92.3 nM
16,"CCCCc1nc(=O)c(CC(=O)O)c(C)n1Cc1ccc(-c2ccccc2-c2nnn[nH]2)cc1 [Compound 20, 2-n-butyl-5-carboxymethyl-6-methyl-1-[[2'-(1H-tetrazol-5-yl)-biphenyl-4-yl]methyl]-pyrimidin-4-(1H)-one]",8.53 nM
17,"CCCCc1nc(C)c(CCCC(=O)OCC)c(=O)n1Cc1ccc(-c2ccccc2-c2nnn[nH]2)cc1 [Compound 29, 2-n-butyl-5-(3'-ethoxycarbonylpropyl)-6-methyl-3-[[2'-(1H-tetrazol-5-yl)biphenyl-4-yl]methyl]-pyrimidin-4-(3H)-one]",17 nM
18,"CCCCc1nc(=O)c(CC(=O)OCC)c(C)n1Cc1ccc(-c2ccccc2-c2nnn[nH]2)cc1 [Compound 18, 2-n-butyl-5-ethoxycarbonylmethyl-6-methyl-1-[[2'-(1H-tetrazol-5-yl)biphenyl-4-yl]methyl]-pyrimidin-4-(1H)-one]",93.3 nM

# Stronger by IC50, values ahead:
row,IC50,Structure (SMILES)
1,4.63 nM,"CCCCc1nc(C)c(CC(=O)OCC)c(=O)n1Cc1ccc(-c2ccccc2-c2nnn[nH]2)cc1 [Compound 17, 2-n-butyl-5-ethoxycarbonylmethyl-6-methyl-3-[[2'-(1H-tetrazol-5-yl)biphenyl-4-yl]methyl]-pyrimidin-4-(3H)-one]"
2,4.35 nM,"CCCc1nc(C)c(CC(=O)OCC)c(=O)n1Cc1ccc(-c2ccccc2-c2nnn[nH]2)cc1 [Compound 9, 2-n-propyl-5-ethoxycarbonylmethyl-6-methyl-3-[[2'-(1H-tetrazol-5-yl)biphenyl-4-yl]methyl]-pyrimidin-4-(3H)-one]"
3,4.06 nM,"CCCCc1nc(C)c(CCC(=O)N2CCSCC2)c(=O)n1Cc1ccc(-c2ccccc2-c2nn[nH]n2)cc1 [Compound 80, 2-n-butyl-5-(2'-thiomorpholinocarbonylethyl)-6-methyl-3-[[2'-(1H-tetrazol-5-yl)biphenyl-4-yl]methyl]-pyrimidin-4-(3H)-one]"
4,3.33 nM,"CCCCc1nc(C)c(CC(=O)N2CCCCCC2)c(=O)n1Cc1ccc(-c2ccccc2-c2nn[nH]n2)cc1 [Compound 56, 2-n-butyl-5-hexamethyleneiminocarbonylmethyl-6-methyl-3-[[2'-(1H-tetrazol-5-yl)biphenyl-4-yl]methyl]-pyrimidin-4-(3H)-one]"
5,2.95 nM,"CCCCc1nc(C)c(CCCC(=O)N(CC)CC)c(=O)n1Cc1ccc(-c2ccccc2-c2nn[nH]n2)cc1 [Compound 32, 2-n-butyl-5-(3'-diethylaminocarbonylpropyl)-6-methyl-3-[[2'-(1H-tetrazol-5-yl)biphenyl-4-yl]methyl]-pyrimidin-4-(3H )-one]"
6,2.37 nM,"CCCCc1nc(C)c(CC(=O)N(C)C)c(=O)n1Cc1ccc(-c2ccccc2-c2nnn[nH]2)cc1 [Compound 22, 2-n-butyl-5-dimethylaminocarbonylmethyl-6-methyl-3-[[2'-(1H-tetrazol-5-yl)biphenyl-4-yl]methyl]-pyrimidin-4-(3H)-one]"
7,2.06 nM,"CCCCc1nc(C)c(CC(=O)N2CCC[C@H]2C(=O)OC)c(=O)n1Cc1ccc(-c2ccccc2-c2nn[nH]n2)cc1 [Compound 42, 2-n-butyl-5-[(S)-2'-methoxycarbonylpyrrolidinocarbonylmethyl]-6-methyl-3-[[2'-(1H-tetrazol-5-yl)biphenyl-4-yl]methyl]-pyrimidin-4-(3H)-one]"
8,2.04 nM,"CCCCc1nc(C)c(CC(=O)N2CC=CC2)c(=O)n1Cc1ccc(-c2ccccc2-c2nn[nH]n2)cc1 [Compound 44, 2-n-butyl-5-(3'-pyrrolinocarbonylmethyl)-6-methyl-3-[[2'-(1H-tetrazol-5-yl)biphenyl-4-yl]methyl]-pyrimidin-4-(3H)-one]"
